Test results as given in ChEMBL document CHEMBL3431459, “Roche carnitine palmitoyltransferase modulator screening data (supplementary data associated with the publication CHEMBL2216752)”.
Values after ≈ are worked out from the molar mass of the structure shown.

What was measured:
[1] = SUPPLEMENTARY: Lipophilicity (log D) Determination by high-throughput shake-flask; format: physicochemical; conditions: octanol/water
[2] = SUPPLEMENTARY: Lyophilisation Solubility Assay (LYSA); format: physicochemical; conditions: read-out: Kinetic_solubility
[3] = target: T1, Carnitine O-palmitoyltransferase 1, liver isoform (Homo sapiens, UniProt P50416); assay: (§1) SUPPLEMENTARY: Inhibition of Carnitine palmitoyltransferase 1, liver isoform
T1 sequence (P50416 whole entry): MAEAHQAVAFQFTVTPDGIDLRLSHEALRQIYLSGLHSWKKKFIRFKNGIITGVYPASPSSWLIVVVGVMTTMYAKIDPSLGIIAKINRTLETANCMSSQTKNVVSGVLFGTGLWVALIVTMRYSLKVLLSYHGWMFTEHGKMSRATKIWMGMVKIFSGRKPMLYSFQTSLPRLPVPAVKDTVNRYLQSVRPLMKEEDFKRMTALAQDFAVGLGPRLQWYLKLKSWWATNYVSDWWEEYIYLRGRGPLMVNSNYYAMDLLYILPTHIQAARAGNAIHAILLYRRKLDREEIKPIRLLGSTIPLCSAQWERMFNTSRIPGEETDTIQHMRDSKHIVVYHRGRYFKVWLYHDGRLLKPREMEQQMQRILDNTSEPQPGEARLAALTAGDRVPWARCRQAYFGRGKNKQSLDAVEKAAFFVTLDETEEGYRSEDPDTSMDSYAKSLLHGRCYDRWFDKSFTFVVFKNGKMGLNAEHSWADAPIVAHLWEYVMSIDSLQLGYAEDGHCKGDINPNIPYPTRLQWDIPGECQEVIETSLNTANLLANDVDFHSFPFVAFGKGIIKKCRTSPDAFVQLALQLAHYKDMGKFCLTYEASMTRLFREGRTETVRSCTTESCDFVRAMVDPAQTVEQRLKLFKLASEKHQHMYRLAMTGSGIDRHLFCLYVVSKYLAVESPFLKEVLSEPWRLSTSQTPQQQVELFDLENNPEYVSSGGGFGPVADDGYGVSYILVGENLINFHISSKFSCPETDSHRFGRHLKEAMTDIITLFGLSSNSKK

[4] = target: T2, Carnitine O-palmitoyltransferase 1, liver isoform (Rattus norvegicus, UniProt P32198); assay: as §1
T2 sequence (P32198 whole entry): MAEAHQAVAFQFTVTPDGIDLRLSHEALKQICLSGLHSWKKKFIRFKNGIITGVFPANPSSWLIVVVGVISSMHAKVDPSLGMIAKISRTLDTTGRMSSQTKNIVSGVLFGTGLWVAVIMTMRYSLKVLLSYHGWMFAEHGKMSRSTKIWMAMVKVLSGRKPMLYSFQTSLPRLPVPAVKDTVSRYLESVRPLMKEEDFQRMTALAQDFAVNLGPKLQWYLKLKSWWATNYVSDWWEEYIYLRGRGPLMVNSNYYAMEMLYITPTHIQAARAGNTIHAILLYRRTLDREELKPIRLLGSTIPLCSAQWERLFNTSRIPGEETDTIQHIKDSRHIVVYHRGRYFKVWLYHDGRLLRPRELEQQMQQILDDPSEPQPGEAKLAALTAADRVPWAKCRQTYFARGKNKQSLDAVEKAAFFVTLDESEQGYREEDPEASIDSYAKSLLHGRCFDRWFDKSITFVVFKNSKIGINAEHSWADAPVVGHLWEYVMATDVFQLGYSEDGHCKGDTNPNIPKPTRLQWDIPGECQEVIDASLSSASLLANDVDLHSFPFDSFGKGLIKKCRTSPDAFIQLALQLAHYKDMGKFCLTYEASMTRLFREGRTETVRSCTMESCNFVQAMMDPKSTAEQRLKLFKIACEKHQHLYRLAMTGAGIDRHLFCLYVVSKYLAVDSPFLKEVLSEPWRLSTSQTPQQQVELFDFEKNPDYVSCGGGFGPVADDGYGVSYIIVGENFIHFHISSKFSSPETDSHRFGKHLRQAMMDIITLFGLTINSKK

[5] = target: T3, Carnitine O-palmitoyltransferase 2, mitochondrial (Homo sapiens, UniProt P23786); assay: (§2) SUPPLEMENTARY: Inhibition of Carnitine palmitoyltransferase 2
T3 sequence (P23786 whole entry): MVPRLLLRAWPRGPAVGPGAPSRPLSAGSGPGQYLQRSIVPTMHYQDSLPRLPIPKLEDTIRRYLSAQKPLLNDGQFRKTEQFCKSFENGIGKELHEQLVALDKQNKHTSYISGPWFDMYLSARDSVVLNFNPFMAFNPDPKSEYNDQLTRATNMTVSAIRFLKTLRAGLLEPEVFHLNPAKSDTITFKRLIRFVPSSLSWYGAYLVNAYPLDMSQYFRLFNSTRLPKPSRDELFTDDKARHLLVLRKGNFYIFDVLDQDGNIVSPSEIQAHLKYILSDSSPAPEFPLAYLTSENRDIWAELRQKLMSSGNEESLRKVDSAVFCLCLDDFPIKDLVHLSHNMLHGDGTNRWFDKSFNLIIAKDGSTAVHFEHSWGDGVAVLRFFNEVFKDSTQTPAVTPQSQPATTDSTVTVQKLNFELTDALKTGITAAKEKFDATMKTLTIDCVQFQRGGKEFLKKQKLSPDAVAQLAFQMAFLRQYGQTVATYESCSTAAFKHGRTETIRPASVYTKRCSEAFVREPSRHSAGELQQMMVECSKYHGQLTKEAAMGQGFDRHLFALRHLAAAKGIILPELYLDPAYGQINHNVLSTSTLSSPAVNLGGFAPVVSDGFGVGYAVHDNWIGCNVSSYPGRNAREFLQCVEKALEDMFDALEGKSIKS

[6] = target: T4, Carnitine O-palmitoyltransferase 2, mitochondrial (Rattus norvegicus, UniProt P18886); assay: as §2
T4 sequence (P18886 whole entry): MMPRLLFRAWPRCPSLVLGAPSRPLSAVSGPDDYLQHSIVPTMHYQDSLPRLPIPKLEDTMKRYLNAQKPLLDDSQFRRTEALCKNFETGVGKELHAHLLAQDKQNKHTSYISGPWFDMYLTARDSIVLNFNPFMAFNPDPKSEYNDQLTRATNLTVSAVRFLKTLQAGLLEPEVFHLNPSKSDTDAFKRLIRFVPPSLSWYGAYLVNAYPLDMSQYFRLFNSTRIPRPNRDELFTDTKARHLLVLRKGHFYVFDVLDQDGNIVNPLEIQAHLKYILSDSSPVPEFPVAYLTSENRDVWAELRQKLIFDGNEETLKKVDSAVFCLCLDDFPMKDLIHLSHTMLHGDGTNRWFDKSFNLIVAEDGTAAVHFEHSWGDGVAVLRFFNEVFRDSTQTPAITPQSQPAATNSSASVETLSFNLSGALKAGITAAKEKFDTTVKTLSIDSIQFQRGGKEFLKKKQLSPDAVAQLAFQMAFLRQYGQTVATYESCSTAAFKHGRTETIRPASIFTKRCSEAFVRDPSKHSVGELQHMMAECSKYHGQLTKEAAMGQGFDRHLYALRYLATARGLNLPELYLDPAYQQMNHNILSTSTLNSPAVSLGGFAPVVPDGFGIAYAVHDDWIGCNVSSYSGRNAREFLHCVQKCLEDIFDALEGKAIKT

[7] = target: T5, Carnitine O-palmitoyltransferase 1, muscle isoform (Homo sapiens, UniProt Q92523); assay: SUPPLEMENTARY: Inhibition of Carnitine palmitoyltransferase 1, muscle isoform; parameters: species or system Muscle tissue
T5 sequence (Q92523 whole entry): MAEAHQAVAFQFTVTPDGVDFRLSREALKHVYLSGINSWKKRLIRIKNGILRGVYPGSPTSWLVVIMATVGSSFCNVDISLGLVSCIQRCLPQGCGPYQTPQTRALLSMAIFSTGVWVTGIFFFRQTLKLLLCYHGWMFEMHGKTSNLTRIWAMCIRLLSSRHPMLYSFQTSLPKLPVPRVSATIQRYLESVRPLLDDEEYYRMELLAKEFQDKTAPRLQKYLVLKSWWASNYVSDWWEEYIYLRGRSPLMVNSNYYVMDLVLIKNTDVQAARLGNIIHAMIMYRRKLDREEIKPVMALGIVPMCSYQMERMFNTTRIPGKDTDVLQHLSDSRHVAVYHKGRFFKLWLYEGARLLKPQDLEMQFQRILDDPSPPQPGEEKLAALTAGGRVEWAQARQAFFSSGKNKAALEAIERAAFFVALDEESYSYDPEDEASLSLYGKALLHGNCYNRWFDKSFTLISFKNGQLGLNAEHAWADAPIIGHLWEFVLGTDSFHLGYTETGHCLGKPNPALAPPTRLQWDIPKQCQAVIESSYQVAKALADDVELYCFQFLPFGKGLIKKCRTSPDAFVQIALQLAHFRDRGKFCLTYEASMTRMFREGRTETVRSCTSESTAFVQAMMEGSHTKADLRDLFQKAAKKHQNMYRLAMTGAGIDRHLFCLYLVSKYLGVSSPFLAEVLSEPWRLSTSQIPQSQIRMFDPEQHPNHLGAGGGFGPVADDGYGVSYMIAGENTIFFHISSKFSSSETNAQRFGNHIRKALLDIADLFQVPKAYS

[8] = SUPPLEMENTARY: PAMPA permeability assay; format: physicochemical; conditions: read-out: Permeability

| logD [1] | solubility kinetic [2] | IC50 [3] | IC50 [4] | IC50 [5] | IC50 [6] | IC50 [7] | Papp [8] | SMILES |
| --- | --- | --- | --- | --- | --- | --- | --- | --- |
| 0.09 | > 697 µg/mL | 208 nM | 182 nM | 9730 nM | 16000 nM | 2280 nM | 1.66 ×10⁻⁶ cm/s | COc1ccc(Cl)cc1S(=O)(=O)N1COc2ccc(C(=O)Nc3ccc(C(=O)O)c(Cl)c3)cc21 |
| 2.7 | 44 µg/mL (≈ 95 µM) | 130 nM | 119 nM | > 100000 nM | > 100000 nM | 2470 nM | 0.86 ×10⁻⁶ cm/s | COc1ccc(Cl)cc1Cc1cn(C)c2ccc(C(=O)Nc3ccc(CC(=O)O)cc3)cc12 |
| 3.24 | 36 µg/mL (≈ 74.4 µM) | 145 nM | 121 nM | 388 nM | 496 nM | > 100000 nM | 5.91 ×10⁻⁶ cm/s | O=C([C@H]1CCCCN1C(=O)COc1ccccc1)N1Cc2cc(Cl)c(N3CCOCC3)cc2C1 |
| 3.01 | 8 µg/mL (≈ 20.1 µM) | 86.6 nM | 83.8 nM | > 100000 nM | > 100000 nM | > 100000 nM | 4.11 ×10⁻⁶ cm/s | NS(=O)(=O)c1ccc(C#C[C@H]2CCCCN2C(=O)COc2ccccc2)cc1 |
| 3.14 | 50 µg/mL (≈ 119 µM) | 108 nM | 475 nM | 49700 nM | 78300 nM | > 100000 nM | 2.71 ×10⁻⁶ cm/s | CC(=O)Nc1ccc(-n2nnc([C@H]3CCCCN3C(=O)COc3ccccc3)n2)cc1 |
| 0.26 | > 579 µg/mL | 132 nM | 92.6 nM | 966 nM | 3410 nM | 755 nM | 1.2 ×10⁻⁶ cm/s | COc1ccc(Cl)cc1S(=O)(=O)N1CCc2ccc(C(=O)Nc3ccc(C(=O)O)c(Cl)c3)cc21 |
| 3.88 | < 1 µg/mL | 130 nM | 162 nM | 47300 nM | > 100000 nM | > 100000 nM | 2.27 ×10⁻⁶ cm/s | O=C(COc1ccccc1)N1CCCC[C@@H]1c1nnn(-c2ccc3[nH]ccc3c2)n1 |
| 3.32 | 29 µg/mL (≈ 64.8 µM) | 72.1 nM | 692 nM | 36700 nM | 24100 nM | > 100000 nM | 2.6 ×10⁻⁶ cm/s | CC(C)C(=O)Nc1cccc(-c2n[nH]c([C@H]3CCCCN3C(=O)COc3ccccc3)n2)c1 |
